Measurements published in patent US11234960B2, “Compositions and methods for improving mitochondrial function and treating neurodegenerative diseases and cognitive disorders” (Amazentis SA, priority 2010, dated 2022).

Columns and labels:
PC-12 cells = assay: Neurite outgrowth in NGF-differentiated PC-12 cells; type: cell-based, rat; details: 0.5 μM; for percent of cells showing significant outgrowth (>20 μm), increase vs differentiated cells: 72 h (FIG. 8); for number of processes, increase: 72 h, differentiated PC-12 cells (FIG. 9)
Description: The ellagitannins and their metabolites tested in the assays were synthesized or purchased from suppliers which included Funakoshi, Sigma, and Chemos. Stock solutions were aliquoted and stored at −20° C.
PC-12 cells (ATCC CRL-1721) were cultured at 37° C., 5% CO2 in poly L-lysine-coated culture flasks in complete culture medium (RPMI 1640+10% heat-inactivated horse serum+5% fetal bovine serum).
Cell differentiation was performed in culture flasks 24 h after plating, in complete medium supplemented with 100 ng/mL NGF (2.5 S NGF, Invitrogen). The NGF-supplemented medium was renewed every third day, and differentiation was induced over an 8-day period.
All compounds to be tested were prepared just before the experiment as a 50 mM stock solution in dimethylsulfoxide (DMSO). The final DMSO concentration was 0.1% in the medium of all experimental groups.
For neurite outgrowth measurements, differentiated cells were washed with phosphate-buffered saline (PBS), collected after detachment and replated at a density of 5,000 cells/well (biocoat imaging 96 well plate) in complete medium supplemented with 100 ng/mL NGF, with or without 10 μM SP600125 (negative control), 1 mM dbcAMP (positive control), or tested compound at 5×10^−7 M. In the undifferentiated control group, no NGF was added after replating.
After 72 h in culture, PC-12 cells were washed with PBS and fixed in 1% paraformaldehyde solution for 20 minutes. After 3 washes with PBS, immunofluorescence labeling was performed with Texas Red Maleimide probe, which reacts with thiol groups of cysteine residues of proteins, permitting the visualization of the entire cell morphology, including neurites.
Immunofluorescence analysis was performed in automated confocal microscopy. Images were acquired with a BD pathway 855 system, under X20 objective with 8×8 field montage. Neurite outgrowth was then measured from acquired images with the neurite module of Metamorph® software. Total and mean outgrowth, total and mean number of processes per cell, and total and percentage of cells with extensive outgrowth (defined as outgrowth longer than 20 μm) were analyzed.

[1] = tested on: high fat diet (HFD)-fed C57BL6/J mice; assay: Body weight and body composition (EchoMRI) in high-fat diet fed mice; type: in vivo; details: for body weight gain: HFD-fed mice vs control HFD-fed mice, PE 140 mkd polyphenols gavage (FIG. 17A); for body weight gain / percentage fat mass (EchoMRI): urolithin A 55 mkd food admix, punicalagin 90 mkd gavage; for percentage of lean mass (EchoMRI) / percentage fat mass (EchoMRI): HFD-fed mice; for percentage of lean mass (EchoMRI): 5 weeks of treatment (FIG. 17C); for percentage fat mass (EchoMRI): 5 weeks of treatment, PE 140 mkd gavage (FIG. 17B)
HFD-fed C57BL6/J mice = assay: Plasma biochemistry in HFD-fed mice; type: in vivo; details: HFD-fed mice treated for 14 weeks; for plasma levels of triglycerides: fasted 12 h (FIG. 23A); for plasma levels of free fatty acids: fasted 12 h (FIG. 23B)
Description: In addition, plasma biochemistry was performed 14 weeks after the initiation of the treatment using a standard automated clinical chemistry analyzer (Dimension Xpand, SIEMENS). Animals were fasted for 12 h (from 8 pm to 8 am) before blood collection. Approximately 500 μL of blood was collected from vena cava in anesthetized animals under isofluorane anesthesia. Blood was collected in heparinized tubes and immediately placed on wet ice. Plasma was prepared by centrifugation (1500×g, 15 min, 4° C.). Plasma samples were then transferred in clean 1.5 mL microtubes and stored at −80° C. until biochemical measurements were performed on a standard automated clinical chemistry analyzer (Dimension Xpand, SIEMENS) using corresponding kits.

[2] = tested on: C57BL6/J mice fed standard chow diet; assay: Body composition (EchoMRI) in standard chow diet fed mice; type: in vivo; details: 2 weeks of treatment, ellagic acid 75 mkd; for percentage of lean mass (EchoMRI): urolithin A 55 mkd food admix (FIG. 18A); for percentage of fat mass (EchoMRI): urolithin A 55 mkd food admix (FIG. 18B)
Source text: Male C57BL6/J mice were purchased from Charles River Laboratory (L'Arbresle, France) at the age of 7 weeks and acclimatized to the animal facility for 2 weeks before initiation of experiments. Mice were housed in groups of 5 in standard housing conditions, with a 12 hr light-dark cycle and free access to food and water. Beginning at 9 weeks of age, mice were fed a high-fat diet (HFD) (60% kcal from fat; D12492; Research Diets Inc., New Brunswick, N.J., USA) for fourteen weeks. Body weight was monitored weekly.
(§1) Mice in different treatment groups were administered (i) urolithin A mixed with food (food admix) to reach a dosing of 55 mg/kg body weight/day (mkd); (ii) ellagic acid mixed with food (food admix) to reach a dosing of 75 mkd; (iii) punicalagin (gavage) to reach a dosing of 90 mkd; or (iv) pomegranate extract (PE) (gavage) to reach a dosing of 140 mkd of total polyphenols. A typical pomegranate extract used in these experiments had the following composition: polyphenols, 140 mkd; punicalagin, 13.1 mkd; and ellagic acid, 13.2 mkd. For animals treated by gavage, gavage was performed daily (7 days/week) between 8:00 and 10:00 a.m.; compounds were mixed with saline solution (0.9% NaCl) and provided at a final volume of 5 mL/kg of body weight. Mice in high-fat control groups were fed with the same diet as the experimental animals. Mice in corresponding different control groups were administered either high-fat diet alone or high-fat diet plus daily gavage with vehicle (saline). Another control group of mice were fed standard chow diet alone.
Body composition was monitored by EchoMRI (Echo Medical Systems, Houston, Tex., USA) 5 weeks after the initiation of the treatment for high-fat diet fed mice and 2 weeks after the initiation of the treatment for chow diet fed mice. Animals were placed individually into a plastic cylinder and then introduced into an EchoMRI system for about 2 min for body composition scanning (lean and fat mass).

[3] = tested on: C57BL6/J mice fed standard chow diet; assay: Indirect calorimetry (CLAMS) in standard chow diet fed mice; type: in vivo; details: for respiratory exchange ratio (RER): chow diet fed mice (FIGS. 21A, 21B); for energy expenditure (oxygen consumption, VO2): standard chow-fed mice, 2 weeks of treatment (FIGS. 19A, 19B)
Description: as §1
Male C57BL6/J mice were grouped and treated as described in Example 7. In addition, however, basal energy expenditure of mice was measured by indirect calorimetry oxygen consumption, carbon dioxide production, and respiratory exchange ratio), 8 weeks after the initiation of treatment for the HFD-fed mice and 2 weeks after the initiation of treatment for standard show diet-fed mice, using the Comprehensive Laboratory Animal Monitoring System (CLAMS; Columbus Instruments, Columbus, Ohio, USA). Animals were first acclimatized for 22 h to CLAMS cages (room temperature 22° C.±1° C.) starting between 11 to 12 am. Then measurement was performed for at least 20 h in the same condition. Measurement included an entire dark cycle. Parameters measured during CLAMS were the following: (i) Oxygen consumption (VO2 in mL/kg/h): VO2 is directly correlated to energy expenditure; (ii) Carbon dioxide production (VCO2 in mL/kg/h); and (iii) Respiratory Exchange Ratio (RER): VCO2/VO2: RER is an indicator of the use of energy substrate. In a steady state, RER is equivalent to the Respiratory Quotient (RQ). Pure carbohydrate use gives RER=1, whereas pure fat burning yields an RER=0.7. A mixed diet gives a RER=0.85.
As stated above, in addition to oxygen consumption, indirect calorimetry also monitors carbon dioxide production. The ratio between carbon dioxide production (VCO2) and oxygen consumption (VO2) is called Respiratory Exchange Ratio (RER). RER is an excellent indicator of the use of energy substrates. In a steady state, RER is equivalent to the Respiratory Quotient (RQ). […]

Compound | percent of cells showing significant outgrowth (>20 μm), increase vs differentiated cells (PC-12 cells) | number of processes, increase (PC-12 cells) | body weight gain [1] | percentage of lean mass (EchoMRI) [1] | percentage fat mass (EchoMRI) [1] | plasma levels of triglycerides (HFD-fed C57BL6/J mice) | plasma levels of free fatty acids (HFD-fed C57BL6/J mice) | percentage of lean mass (EchoMRI) [2] | percentage of fat mass (EchoMRI) [2] | respiratory exchange ratio (RER) [3] | energy expenditure (oxygen consumption, VO2) [3]
O=C1O[C@H]2[C@@H]3OC(=O)c4cc(O)c(O)c(O)c4-c4c(O)c(O)c5oc(=O)c6c(c(O)c(O)c7oc(=O)c4c5c76)-c4c(cc(O)c(O)c4O)C(=O)OC[C@H]3OC(O)[C@@H]2OC(=O)c2cc(O)c(O)c(O)c2-c2c1cc(O)c(O)c2O (mixture of isomers) [punicalagin, 2,3 hexahydroxydiphenoyl-4,6-gallagylglucose] | > 26% | 26.3% | strong reduction of body weight gain | statistically significant increase in the percentage of lean mass | significantly reduced | statistically significant improvement | statistically significant improvement |  |  |  | 
O=c1oc2c(O)c(O)cc3c(=O)oc4c(O)c(O)cc1c4c23 [ellagic acid] |  |  |  |  |  |  |  | statistically significant increase in the percentage of lean mass | reduction in fat mass | significantly decreased RER | increased energy expenditure
O=c1oc2cc(O)ccc2c2ccc(O)cc12 [urolithin A, 3,8-Dihydroxydibenzo-α-pyrone] | 26% | 15.7% | strong reduction of body weight gain | statistically significant increase in the percentage of lean mass | significantly reduced | statistically significant improvement | statistically significant improvement | statistically significant increase in the percentage of lean mass | reduction in fat mass | significantly decreased RER | increased energy expenditure
